According to patent publication US20220340875A1, “METHODS OF CULTURING AND/OR EXPANDING STEM CELLS AND/OR LINEAGE COMMITTED PROGENITOR CELLS USING AMIDO COMPOUNDS” (IDEAYA BIOSCIENCES, INC., priority 2018, published 2022):
pIC50: −log10 of the molar value.

target: T1, hAhR (Homo sapiens, UniProt P35869); test: AhR DRE-luciferase reporter transcriptional assay, antagonist mode (TCDD-induced); type: cell-based; conditions: HEPG2 DRE-Luc cells, 3 nM TCDD, 24 hour incubation, relative IC50
T1 construct: Stably integrated DRE-luciferase cell lines were generated by transducing the both cell lines with Cignal XRE luciferase reporter (Qiagen) lentiviral particles; endogenous in cells
T1 sequence (P35869 11-848): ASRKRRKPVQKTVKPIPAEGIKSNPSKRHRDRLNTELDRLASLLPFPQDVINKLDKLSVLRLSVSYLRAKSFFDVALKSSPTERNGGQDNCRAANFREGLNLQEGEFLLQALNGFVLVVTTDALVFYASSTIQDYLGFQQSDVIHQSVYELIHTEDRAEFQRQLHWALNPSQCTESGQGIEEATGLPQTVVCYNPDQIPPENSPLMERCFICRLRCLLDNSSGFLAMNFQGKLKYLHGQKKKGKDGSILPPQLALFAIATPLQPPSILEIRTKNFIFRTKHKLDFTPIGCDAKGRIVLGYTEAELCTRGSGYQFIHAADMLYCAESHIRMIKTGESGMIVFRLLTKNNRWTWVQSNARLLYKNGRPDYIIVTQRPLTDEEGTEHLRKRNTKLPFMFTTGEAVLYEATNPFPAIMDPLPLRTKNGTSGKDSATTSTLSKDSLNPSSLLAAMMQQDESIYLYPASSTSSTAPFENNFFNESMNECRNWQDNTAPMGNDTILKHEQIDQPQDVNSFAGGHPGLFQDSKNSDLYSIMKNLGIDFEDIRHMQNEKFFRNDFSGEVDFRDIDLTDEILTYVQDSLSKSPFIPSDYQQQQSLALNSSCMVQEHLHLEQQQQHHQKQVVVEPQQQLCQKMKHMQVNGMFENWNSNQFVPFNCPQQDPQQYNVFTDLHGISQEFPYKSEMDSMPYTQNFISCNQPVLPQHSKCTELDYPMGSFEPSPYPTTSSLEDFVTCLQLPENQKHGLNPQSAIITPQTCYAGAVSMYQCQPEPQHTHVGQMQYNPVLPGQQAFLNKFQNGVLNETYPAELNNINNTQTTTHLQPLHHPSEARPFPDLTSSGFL
Summary of the method: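 HepG2 cells carrying a stably integrated DRE-luciferase reporter, in OptiMEM with 0.5% FBS; semi-log compound doses added with 3 nM TCDD, 24 h incubation, firefly luciferase read-out. Percent maximal activity normalised between vehicle ± TCDD; relative IC50 taken as half-reduction between curve plateaus.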

Compound	pIC50
Cc1cc(-c2ncc3cc(C(F)(F)F)ccc3n2)ccc1NC(=O)c1c(C)cnn1C [Example 215, 1,4-dimethyl-N-(2-methyl-4-(6-(trifluoromethyl)quinazolin-2-yl)phenyl)-1H-pyrazole-5-carboxamide]	> 6.70
Cc1cc(-c2ccc3cc(C4CC4)ccc3n2)ccc1NC(=O)c1ccnn1C [Example 068, N-(4-(6-cyclopropylquinolin-2-yl)-2-methylphenyl)-1-methyl-1H-pyrazole-5-carboxamide]	5.00 to 6.00
Cc1cc(-c2ccc3cc(F)cc(C(F)(F)F)c3n2)ccc1NC(=O)c1ccnn1C [Example 058, N-(4-(6-fluoro-8-(trifluoromethyl)quinolin-2-yl)-2-methylphenyl)-1-methyl-1H-pyrazole-5-carboxamide]	6.30 to 6.70
COc1cccc2ccc(-c3ccc(NC(=O)c4ccnn4C)c(C)c3)nc12 [Example 056, N-(4-(8-methoxyquinolin-2-yl)-2-methylphenyl)-1-methyl-1H-pyrazole-5-carboxamide]	6.00 to 6.30
Cc1cc(-c2ncc3cc(C(F)(F)F)ccc3n2)ccc1N(C)C(=O)c1cc(C(N)=O)nn1C [Example 222, N5,1-dimethyl-N5-(2-methyl-4-(6-(trifluoromethyl)quinazolin-2-yl)phenyl)-1H-pyrazole-3,5-dicarboxamide]	> 6.70
Cc1c(-c2ncc3nc(C(F)(F)F)ccc3n2)ccc(N(C)C(=O)c2ccnn2C)c1C [Example 191, N-(2,3-dimethyl-4-(6-(trifluoromethyl)pyrido[3,2-d]pyrimidin-2-yl)phenyl)-N,1-dimethyl-1H-pyrazole-5-carboxamide]	5.00 to 6.00
Cc1cc(-c2ccc3ncn(C)c3c2)ccc1NC(=O)c1ccnn1C [Example 089, 1-Methyl-N-(2-methyl-4-(1-methyl-1H-benzo[d]imidazol-6-yl)phenyl)-1H-pyrazole-5-carboxamide]	5.00 to 6.00
Cc1cc(-c2ncc3cc(C(F)(F)F)ccc3n2)ccc1N(C)C(=O)c1ncncc1C [Example 124, N,5-dimethyl-N-(2-methyl-4-(6-(trifluoromethyl)quinazolin-2-yl)phenyl)pyrimidine-4-carboxamide]	> 6.70
Cc1cc(-c2ccc3c(ccn3C)n2)ccc1NC(=O)c1ccnn1C [Example 085, 1-methyl-N-(2-methyl-4-(1-methyl-1H-pyrrolo[3,2-b]pyridin-5-yl)phenyl)-1H-pyrazole-5-carboxamide]	5.00 to 6.00
Cc1cc(-c2ccc3cc(F)ccc3n2)ccc1NC(=O)c1ccnn1C [Example 014, N-(4-(6-fluoroquinolin-2-yl)-2-methylphenyl)-1-methyl-1H-pyrazole-5-carboxamide]	6.30 to 6.70
Cc1cc(-c2ccc3c(C(F)(F)F)cn(C)c3c2)ccc1NC(=O)c1ccnn1C [Example 086, 1-methyl-N-(2-methyl-4-(1-methyl-3-(trifluoromethyl)-1H-indol-6-yl)phenyl)-1H-pyrazole-5-carboxamide]	5.00 to 6.00
Cc1cc(-c2ncc3cc(C(F)(F)F)ccc3n2)ccc1NC(=O)c1ncccc1C [Example 117, 3-methyl-N-(2-methyl-4-(6-(trifluoromethyl)quinazolin-2-yl)phenyl)picolinamide]	6.00 to 6.30
Cc1cc(-c2ncc3cc(C(F)(F)F)ccc3n2)ccc1NC(=O)c1ccnn1C [Example 112, 1-methyl-N-(2-methyl-4-(6-(trifluoromethyl)quinazolin-2-yl)phenyl)-1H-pyrazole-5-carboxamide]	> 6.70
Cc1cc(-c2ccc3cc(OC(F)(F)F)ccc3n2)ccc1NC(=O)c1ccnn1C [Example 011, 1-methyl-N-(2-methyl-4-(6-(trifluoromethoxy)quinolin-2-yl)phenyl)-1H-pyrazole-5-carboxamide]	6.30 to 6.70
Cc1cc(-c2ccc3cc(F)ccc3n2)ccc1NC(=O)c1ncco1 [Example 039, N-(4-(6-fluoroquinolin-2-yl)-2-methylphenyl)oxazole-2-carboxamide]	6.00 to 6.30
Cn1nccc1C(=O)Nc1ccc(-c2ccc3nc(C(F)(F)F)ccc3n2)cc1F [Example 103, N-(2-fluoro-4-(6-(trifluoromethyl)-1,5-naphthyridin-2-yl)phenyl)-1-methyl-1H-pyrazole-5-carboxamide]	> 6.70
Cc1cc(-c2ncc3cc(C(F)(F)F)ccc3n2)ccc1N(C)C(=O)c1cnc[nH]1 [Example 131, N-methyl-N-(2-methyl-4-(6-(trifluoromethyl)quinazolin-2-yl)phenyl)-1H-imidazole-5-carboxamide]	6.30 to 6.70
Cc1c(N(C)C(=O)c2ccnn2C)ccc(-c2ncc3nc(C(F)(F)F)cc(C)c3n2)c1F [Example 175, N-(3-fluoro-2-methyl-4-(8-methyl-6-(trifluoromethyl)pyrido[3,2-d]pyrimidin-2-yl)phenyl)-N,1-dimethyl-1H-pyrazole-5-carboxamide]	> 6.70
Cc1cc(-c2ncc3nc(C(F)(F)F)cc(C)c3n2)ccc1N(C)C(=O)c1ccnn1CCN1CCCC1 [Example 182, N-methyl-N-(2-methyl-4-(8-methyl-6-(trifluoromethyl)pyrido[3,2-d]pyrimidin-2-yl)phenyl)-1-(2-(pyrrolidin-1-yl)ethyl)-1H-pyrazole-5-carboxamide]	> 6.70
Cc1cc(C(=O)N(C)c2ccc(-c3ncc4nc(C(F)(F)F)cc(C)c4n3)cc2C)ccn1 [Example 150, N,2-dimethyl-N-(2-methyl-4-(8-methyl-6-(trifluoromethyl)pyrido[3,2-d]pyrimidin-2-yl)phenyl)isonicotinamide]	> 6.70
Cc1c(-c2ccc3cc(C(F)(F)F)ccc3n2)ccc(NC(=O)c2ccnn2C)c1F [Example 005, N-(2-fluoro-3-methyl-4-(6-(trifluoromethyl)quinolin-2-yl)phenyl)-1-methyl-1H-pyrazole-5-carboxamide]	5.00 to 6.00
Cc1cc(-c2nc(N)c3nc(C(F)(F)F)cc(C)c3n2)ccc1N(C)C(=O)c1ccnn1C [Example 154, N-(4-(4-amino-8-methyl-6-(trifluoromethyl)pyrido[3,2-d]pyrimidin-2-yl)-2-methylphenyl)-N,1-dimethyl-1H-pyrazole-5-carboxamide]	> 6.70
Cc1cc(C(F)(F)F)nc2cnc(-c3ccc(NC(=O)N4CCOCC4)c(F)c3)nc12 [Example 185, N-(2-fluoro-4-(8-methyl-6-(trifluoromethyl)pyrido[3,2-d]pyrimidin-2-yl)-phenyl)morpholine-4-carboxamide]	> 6.70
Cn1nccc1C(=O)Nc1ccc(-c2cnc3ccccc3n2)cc1 [Example 003, 1-methyl-N-(4-(quinoxalin-2-yl)phenyl)-1H-pyrazole-5-carboxamide]	6.00 to 6.30
Cn1nccc1C(=O)Nc1ccc(-c2ccc3cc(F)ccc3n2)cc1F [Example 066, N-(2-fluoro-4-(6-fluoroquinolin-2-yl)phenyl)-1-methyl-1H-pyrazole-5-carboxamide]	6.00 to 6.30
Cc1cc(-c2ncc3ccc(C(F)(F)F)cc3n2)ccc1NC(=O)c1ccnn1C [Example 108, 1-methyl-N-(2-methyl-4-(7-(trifluoromethyl)quinazolin-2-yl)phenyl)-1H-pyrazole-5-carboxamide]	> 6.70
Cc1cc(-c2ncc3nc(C(F)(F)F)cc(C)c3n2)ccc1N(C)C(=O)c1cc(C(N)=O)nn1CCO [Example 200, 1-(2-hydroxyethyl)-N5-methyl-N5-(2-methyl-4-(8-methyl-6-(trifluoromethyl)pyrido[3,2-d]pyrimidin-2-yl)phenyl)-1H-pyrazole-3,5-dicarboxamide]	> 6.70
